Experiment [1] deals with models of myocardial infarction. The experiment is described as follows: laser tissue blood oxygen monitor measurement in the tissue during pressure bath treatment with four kinds of gases. In kind it is in vivo, male wistar rats. The text has this: The compositions of gases sealed under pressure in the carbon dioxide gas mist pressure bath means were subjected to the experiments using the four kinds of air mist (AM), CO2 gas (CG), CO2 mist (CM) and 100% oxygen mist (OM). Each of gases was sealed under pressure in the carbon dioxide gas mist pressure bath means, and the treatments were practiced. The numbers of the individuals were 13, 14, 15 and 11 pieces, respectively. Each of the individuals was intubated into male wistar rats aged of 8 weeks under the pentobarbital anesthesia, subjected to the thoracotomy, and was ligated at the coronary left-front rami descendens for making models of myocardial infarction. As to the treatments to these individuals by the four kinds of gases, the laser tissue blood oxygen monitor carried out measures on the pre-treatment (pre), the respective conditions at 10 min, 20 min and 30 min after starting the treatments, and the volume of oxygenated blood (volume of oxyhemoglobin) in the tissue of the individuals under the conditions (post) after finishing the treatments, and the measured results are shown in Table 1. To concretely explain Table 1, the air mist (AM) was experimented on the 13 individuals, and the laser tissue blood oxygen monitor carried out measures on the pre-treatment (pre), the conditions at 10 min, 20 min and 30 min after the treatments and the volumes of oxyhemoglobin of the respective individuals under the conditions (post) after the treatments. Then, “reference values” were made from values when having calculated the average values of the volume of oxyhemoglobin of the 13 individuals measured with the blood flow meter before the treatments, and Table expresses this average values as “1.000”. […] With respect to the average values of the volume of oxyhemoglobin of the respective individuals at 20 min, 30 min after starting the treatments and at the case of post, the above mentioned reference value made the division calculation on the value when having calculated the reference value of the volumes of oxyhemoglobin of the respective individuals, and the values calculated by the division are shown as the average values. […] The measures at this time also performed in each of the treatments as the pre-treatment (pre), the respective conditions of passing 10 min, 20 min and 30 min after starting the treatments, under the conditions (post) after finishing the treatments. In the results of measuring the treatments of the respective gases, “reference values” were made from values when calculating the average values of the volume of deoxyhemoglobin, the average value was expressed with “1.000” in this Table. The above mentioned reference values made the division calculation on the values when calculating the average values of the amount of deoxyhemoglobin of the respective individuals measured by the laser tissue blood oxygen monitor in the pre-treatment (pre) in the respective individuals of the cases of passing 20 min, 30 min and the condition (post) after finishing the treatments, and the values calculated by the division are shown as the average values. […] The measures performed, also at this time, in each of the gas treatments of the pre-treatment (pre), the respective conditions of 10 min, 20 min, 30 min after starting the treatment, and under the conditions (post) after finishing the treatments. In the results of measuring the treatments of the respective gases, making “reference values” from values when having calculated the average values of the volume of total hemoglobin, the average value is expressed with “1.000” in this Table. […]

The subject of a further experiment is myocardial infarction. The experiment is described as follows: measuring the tissue pH over weeks of treatment. Format: in vivo, wistar rats. How it is done:
The composition to be sealed under pressure into the carbon dioxide gas mist pressure bath means was experimented in the four kinds of the control (C), non-treated myocardial infarction (NM), CO2 mist (M) and CO2 gas. The number practiced by each of the gases is 8, 9, 8 and 5 individuals. In each of treatments, the pH changes of the individuals are measured in the pre-treatment (Δ1 day), one week after the treatment (Δ1 wks), two week after the treatment (Δ2 wks), and three week after the treatment (Δ3 wks). To explain Table 5 concretely, the control (C) was experimented to 8 individuals, as to the values of pH of the respective individuals are measured 1 week (Δ1 wks) after the treatment, 2 weeks (Δ2 wks) after the treatment, and (Δ3 wks) after the treatment. As to the changing values of pH of the respective individuals, making the reference values of the values when having calculated the average values of pH of 8 individuals measured before the treatment (Δ1 day), Table 5 expresses this reference value as “0.000”. Similarly, also as to three kinds of gases of the non treated myocardial infarction (NM), CO2 mist and CO2 gas (CG), making the reference values of the values when having calculated the average values of the changing values in pH before the treatment (Δ1 day), Table 5 expresses this reference value as “0.000”. The average values of the changing values of pH in the respective individuals measured at 1 week (Δ1 wks) after the treatment, 2 weeks (Δ2 wks) after the treatment and (Δ3 wks) after the treatment are shown with the respective changing amounts from the respective reference values. […] The numbers of the individuals practiced with the gases are 8, 9, 8 and 5 pieces, respectively, providing that the average values of pH are shown as they are pre-treatment (day 1), 1 week (Δ1 wks) after the treatment, 2 weeks (Δ2 wks) after the treatment, and (Δ3 wks) after the treatment.

Where [2] appears, read: 10 min, relative to pre = 1.000.
The mark [3] stands for this setting: 20 min, relative to pre = 1.000.
[4] abbreviates: 30 min, relative to pre = 1.000.

`O=C=O` [CG, carbon dioxide]: the “StO2 (degree of oxygen saturation in blood in the tissue), average value” in experiment [1] (setting [2]) was determined as 1.027; in experiment [1] (setting [3]) it was 1.061; in experiment [1] (setting [4]), 1.063; in experiment [1] (post, relative to pre = 1.000), 1.065. The “total Hb (volume of total hemoglobin in the tissue), average value” is 1.002 in experiment [1] (setting [2]); 1.010 in experiment [1] (setting [3]); “.995” in experiment [1] (setting [4]); “.981” in experiment [1] (post, relative to pre = 1.000). Moreover, the “deoxyHb (volume of deoxyhemoglobin in the tissue), average value” in experiment [1] (10 min after starting treatment, relative to pre = 1.000) was “.974”; in experiment [1] (setting [3]), “.942”; in experiment [1] (setting [4]) it was “.930”; in experiment [1] (post, relative to pre = 1.000), “.915”. The “oxyHb (volume of oxyhemoglobin in the tissue), average value” in experiment [1] (10 min after starting treatment, relative to pre-treatment average = 1.000) was found to be 1.030; in experiment [1] (20 min after starting treatment, relative to pre = 1.000), 1.074; in experiment [1] (post (after finishing treatment), relative to pre = 1.000) it was 1.051. Also, the “amount of oxyhemoglobin, effect of the treatment in words” value in experiment [1] (over the course of treatment (FIG. 11)) is on record as “though not significant, increase of the amount of oxyhemoglobin was recognized”. The “StO2, effect of the treatment in words” value in experiment [1] (over the course of treatment (FIG. 17)) is recorded as “increases until 20 minutes after the treatment starts”. Besides, the “tissue pH, average value” worked out at 7.168 in the experiment with myocardial infarction (1 wks after the treatment), 7.340 in the experiment with myocardial infarction (2 wks after the treatment), 7.306 with myocardial infarction (3 wks after the treatment) and 7.254 in the experiment on myocardial infarction (pre-treatment (day 1)). In addition, the “change of tissue pH (ΔpH), average value” is listed as “−.084” with myocardial infarction (1 wks after the treatment, change from pre-treatment (1 day) = 0.000); “.090” in the experiment on myocardial infarction (2 wks, change from pre-treatment = 0.000); “.050” in the experiment with myocardial infarction (3 wks, change from pre-treatment = 0.000).

The values are drawn from patent publication US20130072863A1, “CARBON DIOXIDE GAS MIST PRESSURE BATH METHOD AND CARBON DIOXIDE GAS MIST PRESSURE BATH APPARATUS FOR PREVENTING, IMPROVING OR CURING MYOCARDIAL INFARCTION” (priority 2010, published 2013).
